From patent publication US4871756A, “Leukotriene antagonists” (Merck Frosst Canada, Inc., priority 1987, dated 1989)

System: Leukotriene D4 (ileum contraction induced by LTD4)
Test: Guinea Pig Ileum Assay for Evaluation of Antagonists of Leukotriene D4 (Inhibition of Ileum Contraction Induced by LTD4)
Assay type: cell-based, guinea pig (male Hartley strain)
Conditions: Cavia porcellus, LTD4 0.3 ng/ml, 30 second pretreatment; for inhibition at 10 µg/mL: 10 μg/ml
Protocol: The terminal ileum from male Hartley strain guinea pigs (300-500 g) was removed and suspended under 1 g resting tension in Tyrode's solution containing 1.0×10^-6 M atropine sulfate and 1.6×10^-6 M timolol (beta blocker). After a 15-30 minute stabilization period, a standard dose of leukotriene D4 (0.3 ng/ml--final bath concentration)was added repeatedly until consistent and reproducible contractile responses were obtained. Isometric contractions to leukotriene D4 were recorded for 60 seconds and then the tissue was washed and allowed to recove to baseline (2 minutes) before the next dose of leukotriene D4 was added. For testing antagonist compounds, a 30 second pretreatment period was used and the percent inhibition of the control contraction to leukotriene D4 was recorded. A similar procedure was employed for testing active compounds against contractions to a standard dose of histamine (50 ng/ml--final bath concentration).

Row | SMILES | inhibition at 1 µg/mL (1 μg/ml) [%] | inhibition at 10 µg/mL [%]
1 | CCCc1c(OCC2(O)CCCCC2Sc2ccc(C(=O)CCC(=O)O)cc2)ccc(C(C)=O)c1O [L-649,106] | 23 | 80
2 | CCCc1c(OCC2(Sc3ccc(C(=O)CCC(=O)O)cc3)CCCCC2O)ccc(C(C)=O)c1O [L-649,107] | – | 12
